Activity calls are given as the source filed them.
Columns and labels:
[1] = biological target: Beta-2 adrenergic receptor (Homo sapiens, UniProt P07550); test: ADRB2 activation measured by internalization – cell-based, FAP fluorogen, flow cytometry, cherry pick 1, dose response (AID 588763); format: functional
[2] = decrease of insulin promoter-GFP reporter – imaging, high-content screening, mouse beta cells (AID 1628); format: functional; settings: MIN6
[3] = MIN6 cell viability loss – mouse insulinoma, cytotoxicity control, dose response (AID 2122); format: functional;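 also: confirmatory high-throughput counterscreen run to flag cytotoxic compounds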
[4] = system: HeLa; test: toxicity to human HeLa cells – cell-based, 48 h, plate reader, cherry-picks, cytotoxicity control, dose response (AID 504942); format: functional
[5] = alpha-synuclein stem-loop luciferase translation blockers – H4 neuroglioma cells, luminescence, confirmation (AID 1988); format: functional, cell-based
[6] = luciferase reporter signal suppression in cells – H4 neuroglioma cells, luminescence, dose response (AID 1990); format: functional, cell-based
[7] = biological target: Acyl-homoserine lactone acylase PvdQ (Pseudomonas aeruginosa (strain LESB58), UniProt Q9I194); test: PvdQ acylase enzyme activity blockers – biochemical, fluorescence, plate reader and imaging, cherry-picks, dose response (AID 493231)
Chain of Acyl-homoserine lactone acylase PvdQ (Q9I194 24-193 limits assumed): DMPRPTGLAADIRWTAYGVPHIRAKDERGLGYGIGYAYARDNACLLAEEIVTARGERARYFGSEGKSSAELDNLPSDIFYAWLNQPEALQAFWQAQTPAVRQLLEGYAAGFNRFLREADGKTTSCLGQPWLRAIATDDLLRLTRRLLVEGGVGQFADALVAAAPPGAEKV
Chain of Acyl-homoserine lactone acylase PvdQ (Q9I194 217-762 limits assumed): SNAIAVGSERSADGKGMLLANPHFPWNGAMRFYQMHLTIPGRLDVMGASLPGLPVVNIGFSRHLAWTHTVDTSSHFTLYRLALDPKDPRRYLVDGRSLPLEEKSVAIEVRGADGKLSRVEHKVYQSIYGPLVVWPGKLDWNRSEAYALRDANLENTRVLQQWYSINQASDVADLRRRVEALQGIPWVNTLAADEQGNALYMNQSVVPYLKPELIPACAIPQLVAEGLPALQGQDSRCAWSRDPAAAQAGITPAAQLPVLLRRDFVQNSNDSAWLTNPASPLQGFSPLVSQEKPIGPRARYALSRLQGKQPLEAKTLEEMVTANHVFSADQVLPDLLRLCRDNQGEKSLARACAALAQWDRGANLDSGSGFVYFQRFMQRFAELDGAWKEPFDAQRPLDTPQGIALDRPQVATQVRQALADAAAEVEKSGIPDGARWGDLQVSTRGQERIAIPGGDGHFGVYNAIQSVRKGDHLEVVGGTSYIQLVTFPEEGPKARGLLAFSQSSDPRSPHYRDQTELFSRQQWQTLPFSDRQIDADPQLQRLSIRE

[8] = biological target: Bcl-2-like protein 10 (Homo sapiens, UniProt Q9HD36); test: Isothermal titration calorimetry (ITC) with Bcl-B and compounds active in primary screen. [Related pubchem assays (depositor defined):AID1693]; format: functional
Chain of Bcl-2-like protein 10 (Q9HD36 whole entry): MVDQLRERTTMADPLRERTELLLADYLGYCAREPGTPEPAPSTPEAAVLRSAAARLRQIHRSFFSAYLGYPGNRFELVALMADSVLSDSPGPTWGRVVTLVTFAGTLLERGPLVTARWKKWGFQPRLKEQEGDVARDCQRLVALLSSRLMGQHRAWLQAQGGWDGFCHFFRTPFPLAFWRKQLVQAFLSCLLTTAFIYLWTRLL

[9] = biological target: Trypsin (Sus scrofa, UniProt P00761); test: trypsin protease activity blockade – biochemical, quenched peptide fluorescence, cherry-pick, selectivity assay for Rce1 protease inhibitor project, dose response (AID 488789)
Chain of Trypsin (P00761 whole entry): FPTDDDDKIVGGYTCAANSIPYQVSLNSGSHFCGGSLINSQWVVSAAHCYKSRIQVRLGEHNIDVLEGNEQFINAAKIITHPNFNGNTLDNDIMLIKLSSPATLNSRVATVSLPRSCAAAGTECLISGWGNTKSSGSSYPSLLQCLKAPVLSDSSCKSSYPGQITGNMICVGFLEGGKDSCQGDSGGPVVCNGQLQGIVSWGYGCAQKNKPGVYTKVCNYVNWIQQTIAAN

[10] = biological target: CAAX prenyl protease 2 (Homo sapiens, UniProt Q9Y256); test: inhibition of Ras-converting CAAX protease Rce1 – biochemical, yeast membranes, quenched-peptide fluorescence, cherry-pick, dose response (AID 588849)
Chain of CAAX prenyl protease 2 (Homo sapiens, UniProt Q9Y256) (Q9Y256 whole entry): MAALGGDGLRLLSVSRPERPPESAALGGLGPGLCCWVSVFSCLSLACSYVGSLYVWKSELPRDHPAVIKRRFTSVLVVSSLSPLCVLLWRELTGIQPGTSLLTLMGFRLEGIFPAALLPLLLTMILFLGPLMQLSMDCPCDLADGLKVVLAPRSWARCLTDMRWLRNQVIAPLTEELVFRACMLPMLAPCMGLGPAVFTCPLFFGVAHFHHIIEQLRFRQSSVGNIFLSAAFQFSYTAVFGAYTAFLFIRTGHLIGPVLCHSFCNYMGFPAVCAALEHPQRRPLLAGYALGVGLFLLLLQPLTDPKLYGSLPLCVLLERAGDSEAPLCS

[11] = biological target: T1, CAAX prenyl protease 2 (Saccharomyces cerevisiae S288c, UniProt Q03530); format: biochemical
T1 sequence (Q03530 whole entry): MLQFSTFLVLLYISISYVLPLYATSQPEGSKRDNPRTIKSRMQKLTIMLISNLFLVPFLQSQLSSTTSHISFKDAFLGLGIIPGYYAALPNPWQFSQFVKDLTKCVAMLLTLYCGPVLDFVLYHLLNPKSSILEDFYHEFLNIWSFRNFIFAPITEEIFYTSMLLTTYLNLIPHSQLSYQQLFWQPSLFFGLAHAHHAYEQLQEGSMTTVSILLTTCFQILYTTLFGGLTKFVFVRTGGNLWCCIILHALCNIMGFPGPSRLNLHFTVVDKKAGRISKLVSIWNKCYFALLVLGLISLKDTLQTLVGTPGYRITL

[12] = biological target: T2, Endoribonuclease toxin MazF (Escherichia coli K-12, UniProt P0AE70); test: substrate-only fluorescence increase artefacts – biochemical, single-stranded RNase substrate, counter-screen for MazEF activator project, dose response (AID 588502); format: functional
T2 sequence (P0AE70 whole entry): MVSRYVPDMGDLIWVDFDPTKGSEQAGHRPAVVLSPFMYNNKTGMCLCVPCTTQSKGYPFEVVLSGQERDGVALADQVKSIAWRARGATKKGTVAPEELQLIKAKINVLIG

[13] = biological target: T2, Endoribonuclease toxin MazF; test: activation of MazEF endoribonuclease cleavage – biochemical, fluorescence, single-stranded RNA substrate, uHTS hits, dose response (AID 588481); format: functional
[14] = system: INS1; test: INS-1E survival protection against cytokine death – cell-based, luminescence, retest, dose response (AID 449756); format: functional; settings: Rattus norvegicus;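 also: cell death triggered by IL-1 beta plus TNF-alpha plus IFN-gamma mixture; protective hits raise ATP signal compared with cytokine alone wells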
[15] = biological target: DNA topoisomerase (Yersinia pestis, UniProt A0A2S9PM60); test: Yersinia topoisomerase I cleavage product accumulation – biochemical, cherry-pick, dose response (AID 588525)
[16] = system: Candida albicans; test: C. albicans growth inhibition with fluconazole – CaCi-2 strain, Alamar Blue, dry powder, set 4, dose response (AID 488943); format: functional, organism-based
[17] = system: Candida albicans; test: fluconazole-resistant Candida strain growth inhibitors – CaCi-8 strain, dry powder, set 4, dose response (AID 488950); format: functional, organism-based
[18] = system: Candida albicans; test: single-agent toxicity toward C. albicans – CaCi-2 strain, no fluconazole, dry powder, set 4, counter-screen for reversing antifungal drug resistance, dose response (AID 488932); format: functional, organism-based
[19] = system: INS1; test: beta-cell survival under cytokine stress – INS-1E, ATP luminescence, dry powder, dose response (AID 488844); format: functional, cell-based; settings: Rattus norvegicus
[20] = system: INS1; test: INS-1E mitochondrial potential rescue under cytokines – cell-based, JC-1 fluorescence ratio, dry powder, dose response (AID 488931); format: functional; settings: Rattus norvegicus
[21] = biological target: Phospholipase D2 (Homo sapiens, UniProt O14939); test: cellular phospholipase D2 inhibition IC50 – cell-based, dose response (AID 602147); format: functional;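 also: cellular assay in HEK293 cells overexpressing GFP-tagged PLD2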
Chain of Phospholipase D2 (O14939 whole entry): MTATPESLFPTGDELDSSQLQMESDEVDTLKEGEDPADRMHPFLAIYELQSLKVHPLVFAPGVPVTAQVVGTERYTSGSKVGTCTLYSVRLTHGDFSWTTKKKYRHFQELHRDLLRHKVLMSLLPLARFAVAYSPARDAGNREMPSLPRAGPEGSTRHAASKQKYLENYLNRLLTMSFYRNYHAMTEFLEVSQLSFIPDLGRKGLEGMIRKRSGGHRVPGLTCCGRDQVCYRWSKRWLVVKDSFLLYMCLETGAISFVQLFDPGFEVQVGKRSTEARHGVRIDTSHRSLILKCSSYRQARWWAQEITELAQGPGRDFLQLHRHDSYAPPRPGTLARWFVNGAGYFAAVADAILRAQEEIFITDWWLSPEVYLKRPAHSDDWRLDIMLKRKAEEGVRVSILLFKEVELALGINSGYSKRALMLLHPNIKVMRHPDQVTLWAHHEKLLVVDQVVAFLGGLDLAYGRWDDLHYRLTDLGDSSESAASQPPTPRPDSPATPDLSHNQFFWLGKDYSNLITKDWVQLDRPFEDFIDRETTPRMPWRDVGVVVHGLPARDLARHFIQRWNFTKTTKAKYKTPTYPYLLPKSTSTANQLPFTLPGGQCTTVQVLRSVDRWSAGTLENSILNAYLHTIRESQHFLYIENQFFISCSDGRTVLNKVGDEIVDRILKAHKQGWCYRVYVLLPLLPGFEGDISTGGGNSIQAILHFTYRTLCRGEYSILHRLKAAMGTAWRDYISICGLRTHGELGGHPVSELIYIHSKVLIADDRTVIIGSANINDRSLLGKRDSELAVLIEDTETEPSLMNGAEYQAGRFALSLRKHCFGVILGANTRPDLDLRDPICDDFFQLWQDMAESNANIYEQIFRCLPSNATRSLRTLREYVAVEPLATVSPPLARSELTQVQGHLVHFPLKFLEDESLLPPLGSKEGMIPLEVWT

[22] = biological target: Phospholipase D1 (Homo sapiens, UniProt Q13393); test: cellular phospholipase D1 inhibition IC50 – cell-based, dose response (AID 602151); format: functional;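 also: cellular PLD1 assay in Calu-1 cells stimulated with PMA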
[23] = biological target: T3, Hexokinase HKDC1 (Homo sapiens, UniProt Q2TB90); test: analog inhibition of human HKDC1 activity – biochemical, set 2, SAR follow-up (AID 588355); format: functional
T3 sequence (Q2TB90 whole entry): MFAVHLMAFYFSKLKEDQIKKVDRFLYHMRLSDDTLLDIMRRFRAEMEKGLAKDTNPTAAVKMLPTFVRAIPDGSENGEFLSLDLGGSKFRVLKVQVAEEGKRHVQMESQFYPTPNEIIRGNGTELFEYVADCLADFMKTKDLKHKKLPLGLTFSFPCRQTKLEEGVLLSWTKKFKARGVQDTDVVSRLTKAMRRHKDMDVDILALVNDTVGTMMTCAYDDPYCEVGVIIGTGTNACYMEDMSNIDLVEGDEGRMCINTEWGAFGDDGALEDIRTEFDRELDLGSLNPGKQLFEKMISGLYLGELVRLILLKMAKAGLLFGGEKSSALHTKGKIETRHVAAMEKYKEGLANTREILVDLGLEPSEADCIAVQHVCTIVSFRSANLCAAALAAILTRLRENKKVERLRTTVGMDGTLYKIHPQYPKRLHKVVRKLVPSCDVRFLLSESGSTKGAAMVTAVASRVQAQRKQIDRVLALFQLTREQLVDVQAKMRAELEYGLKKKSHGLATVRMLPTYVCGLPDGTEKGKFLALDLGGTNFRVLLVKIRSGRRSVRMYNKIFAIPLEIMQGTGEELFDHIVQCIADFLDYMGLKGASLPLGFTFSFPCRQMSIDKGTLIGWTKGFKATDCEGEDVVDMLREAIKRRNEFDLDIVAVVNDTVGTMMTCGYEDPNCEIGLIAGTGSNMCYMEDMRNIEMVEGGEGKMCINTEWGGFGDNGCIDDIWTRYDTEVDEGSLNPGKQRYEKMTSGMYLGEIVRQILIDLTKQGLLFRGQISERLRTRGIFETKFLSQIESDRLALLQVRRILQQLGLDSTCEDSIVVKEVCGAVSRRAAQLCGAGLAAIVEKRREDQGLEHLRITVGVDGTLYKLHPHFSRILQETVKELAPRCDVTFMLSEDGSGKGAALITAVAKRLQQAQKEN

[24] = biological target: Hexokinase-1 (Homo sapiens, UniProt P19367); test: hexokinase 1 activity inhibitors, potency – biochemical, set 2, resazurin fluorescence coupled readout, selectivity assay for HKDC1 inhibitor project, SAR follow-up (AID 588356); format: functional
Chain of Hexokinase-1 (P19367 whole entry): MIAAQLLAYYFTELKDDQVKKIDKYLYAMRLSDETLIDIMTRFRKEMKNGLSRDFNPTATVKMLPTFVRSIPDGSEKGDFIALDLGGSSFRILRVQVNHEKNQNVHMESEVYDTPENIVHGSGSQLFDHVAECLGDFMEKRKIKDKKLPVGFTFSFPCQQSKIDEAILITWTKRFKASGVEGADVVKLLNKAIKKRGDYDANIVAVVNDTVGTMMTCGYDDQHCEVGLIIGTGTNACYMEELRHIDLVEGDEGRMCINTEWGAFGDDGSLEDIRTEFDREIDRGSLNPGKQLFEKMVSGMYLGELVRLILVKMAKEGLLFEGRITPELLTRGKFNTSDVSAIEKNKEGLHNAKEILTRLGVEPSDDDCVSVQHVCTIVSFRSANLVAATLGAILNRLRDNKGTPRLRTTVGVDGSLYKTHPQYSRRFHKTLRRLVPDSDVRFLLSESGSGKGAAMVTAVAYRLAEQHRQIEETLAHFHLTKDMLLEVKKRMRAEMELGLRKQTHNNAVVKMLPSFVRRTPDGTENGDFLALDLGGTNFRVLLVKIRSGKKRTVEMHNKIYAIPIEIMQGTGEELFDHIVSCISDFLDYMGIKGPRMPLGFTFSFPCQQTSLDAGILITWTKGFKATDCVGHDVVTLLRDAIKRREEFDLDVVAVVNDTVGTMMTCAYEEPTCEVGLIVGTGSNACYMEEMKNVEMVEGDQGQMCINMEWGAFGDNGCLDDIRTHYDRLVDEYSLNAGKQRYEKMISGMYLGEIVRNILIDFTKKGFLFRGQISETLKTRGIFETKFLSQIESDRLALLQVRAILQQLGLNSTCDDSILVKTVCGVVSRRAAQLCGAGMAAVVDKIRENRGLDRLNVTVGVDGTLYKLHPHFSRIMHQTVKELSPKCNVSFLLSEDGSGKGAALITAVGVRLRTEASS

[25] = biological target: T4, Short transient receptor potential channel 4 (Mus musculus, UniProt Q9QUQ5); test: potency of mouse TRPC4 calcium flux blockers – cell-based, HEK293 TRPC4/mu-opioid, DAMGO stimulus, Fluo-4, dose response (AID 492994); format: functional
T4 sequence (Q9QUQ5 whole entry): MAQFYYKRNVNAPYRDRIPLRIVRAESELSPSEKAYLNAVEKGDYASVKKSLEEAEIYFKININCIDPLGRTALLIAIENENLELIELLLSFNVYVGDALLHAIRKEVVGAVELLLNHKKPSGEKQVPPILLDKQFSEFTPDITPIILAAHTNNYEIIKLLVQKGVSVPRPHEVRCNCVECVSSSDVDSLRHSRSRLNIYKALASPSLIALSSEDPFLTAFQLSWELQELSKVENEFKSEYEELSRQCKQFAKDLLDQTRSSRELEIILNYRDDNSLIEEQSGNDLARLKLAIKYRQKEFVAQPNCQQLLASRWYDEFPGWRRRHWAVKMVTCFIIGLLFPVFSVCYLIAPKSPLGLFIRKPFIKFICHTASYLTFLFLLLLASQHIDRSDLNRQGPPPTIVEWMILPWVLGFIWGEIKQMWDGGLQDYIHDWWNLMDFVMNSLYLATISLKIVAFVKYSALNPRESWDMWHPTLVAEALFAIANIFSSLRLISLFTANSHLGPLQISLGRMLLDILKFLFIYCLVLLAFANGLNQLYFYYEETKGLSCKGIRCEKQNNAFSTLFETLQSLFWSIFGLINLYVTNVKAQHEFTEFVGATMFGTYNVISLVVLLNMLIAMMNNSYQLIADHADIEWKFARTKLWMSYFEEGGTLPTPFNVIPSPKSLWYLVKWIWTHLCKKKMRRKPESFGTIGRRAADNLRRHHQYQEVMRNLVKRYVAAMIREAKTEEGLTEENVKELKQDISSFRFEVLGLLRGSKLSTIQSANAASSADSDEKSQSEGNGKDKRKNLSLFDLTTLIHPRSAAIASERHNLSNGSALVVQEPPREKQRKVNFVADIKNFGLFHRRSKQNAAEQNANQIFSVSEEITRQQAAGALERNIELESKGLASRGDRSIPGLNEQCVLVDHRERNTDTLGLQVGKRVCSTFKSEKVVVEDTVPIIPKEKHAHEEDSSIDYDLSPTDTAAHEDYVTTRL

[26] = biological target: T4, Short transient receptor potential channel 4; test: SAR Analysis for the identification of selective inhibits of the transient receptor potential cation channel C4 (TRPC4): Automated Electrophysiology. [Related pubchem assays (depositor defined):AID2256]; format: functional
[27] = biological target: Short transient receptor potential channel 6 (Mus musculus, UniProt Q61143); test: mouse TRPC6 channel blockers, concentration series – HEK293 cells, membrane potential dye, IC50, selectivity assay for selective TRPC4 inhibitor project, dose response (AID 492987); format: functional, cell-based
Chain of Short transient receptor potential channel 6 (Q61143 whole entry): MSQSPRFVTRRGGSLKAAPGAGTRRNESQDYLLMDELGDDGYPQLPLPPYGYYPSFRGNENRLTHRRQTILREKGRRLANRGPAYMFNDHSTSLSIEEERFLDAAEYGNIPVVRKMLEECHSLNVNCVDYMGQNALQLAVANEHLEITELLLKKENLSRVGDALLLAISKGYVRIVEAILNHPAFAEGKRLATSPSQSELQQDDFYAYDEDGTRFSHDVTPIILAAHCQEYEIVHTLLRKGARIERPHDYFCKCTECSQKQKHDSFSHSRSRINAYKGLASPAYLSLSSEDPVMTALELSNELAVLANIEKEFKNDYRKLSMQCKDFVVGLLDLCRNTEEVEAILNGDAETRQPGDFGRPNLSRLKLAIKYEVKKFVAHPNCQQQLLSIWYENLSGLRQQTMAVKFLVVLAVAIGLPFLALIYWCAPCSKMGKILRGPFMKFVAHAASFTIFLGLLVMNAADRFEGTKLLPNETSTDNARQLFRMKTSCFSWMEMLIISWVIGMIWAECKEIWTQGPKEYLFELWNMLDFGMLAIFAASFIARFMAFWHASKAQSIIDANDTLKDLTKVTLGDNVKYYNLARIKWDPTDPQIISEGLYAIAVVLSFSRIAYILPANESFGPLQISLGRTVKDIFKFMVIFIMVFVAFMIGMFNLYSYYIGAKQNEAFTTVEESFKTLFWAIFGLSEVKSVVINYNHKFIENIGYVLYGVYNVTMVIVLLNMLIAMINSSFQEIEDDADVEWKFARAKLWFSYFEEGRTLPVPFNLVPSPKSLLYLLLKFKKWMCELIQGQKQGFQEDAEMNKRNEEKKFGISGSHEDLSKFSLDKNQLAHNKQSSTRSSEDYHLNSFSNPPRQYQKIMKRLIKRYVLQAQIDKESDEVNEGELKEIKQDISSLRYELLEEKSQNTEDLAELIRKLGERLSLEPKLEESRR

Chain of Beta-2 adrenergic receptor (P07550 whole entry): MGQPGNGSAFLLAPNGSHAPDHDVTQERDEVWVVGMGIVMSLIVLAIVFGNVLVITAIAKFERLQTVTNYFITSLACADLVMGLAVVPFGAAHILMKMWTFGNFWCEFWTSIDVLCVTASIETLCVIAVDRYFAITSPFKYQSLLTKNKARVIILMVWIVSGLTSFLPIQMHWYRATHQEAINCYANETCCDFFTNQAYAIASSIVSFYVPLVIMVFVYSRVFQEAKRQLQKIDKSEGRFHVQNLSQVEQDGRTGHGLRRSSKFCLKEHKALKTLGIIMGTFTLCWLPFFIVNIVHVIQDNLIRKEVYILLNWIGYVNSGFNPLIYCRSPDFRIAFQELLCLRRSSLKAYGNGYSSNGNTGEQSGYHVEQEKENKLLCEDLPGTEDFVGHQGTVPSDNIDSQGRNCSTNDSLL

CC1(C)Cc2c(c(-c3ccco3)nc3sc4c(NCCO)ncnc4c23)CO1
EC50 [1]: 0.0133 µM (active) | IC50 [2]: 0.909 µM (active) | IC50 [3]: > 16 µM (inactive)

COc1ccc(C2=C(C=O)Cc3ccccc3O2)cc1
AC50 [4]: > 380 µM (inactive) | EC50 [5]: > 120 µM (not active) | EC50 [6]: > 120 µM (not active) | AC50 [7]: 4.37 µM (active)

O=C1NC(=O)C2(Cc3c(nc4ccccn4c3=O)N3CCCCCC32)C(=O)N1Cc1ccccc1 (configuration not stated)
IC50 [8]: 2.51 µM (active)

CC1=C(C)C(C)=C(C#N)C(=C(C#N)C#N)N1
AC50 [9]: 12.1 µM (active) | AC50 [10]: 13.9 µM (active) | AC50 [11]: 13.2 µM (active)

Cc1ccc(O)c(C2=Nc3ccccc3N=C(c3ccco3)C2)c1
EC50 [12]: 75.1 µM (inactive) | EC50 [13]: > 99 µM (inactive)

CC(C)(C)OC(=O)NCc1ccc(NC(=O)c2[nH]cnc2C(=O)NCCNC(=O)c2nc[nH]c2C(=O)Nc2ccc(CNC(=O)OC(C)(C)C)cc2)cc1
AC50 [14]: 6.59 µM (active) | AC50 [15]: 2.49 µM (active)

O=C(c1ccc(Cl)cc1)N1CCN(c2cnccn2)CC1
AC50 [16]: 12.7 µM (active) | AC50 [17]: 10.7 µM (active) | AC50 [18]: 234 µM (active)

Cc1ccc(S(=O)(=O)N(C)C[C@@H]2Oc3c(NC(=O)Nc4ccccc4)cccc3C(=O)N([C@H](C)CO)C[C@H]2C)cc1
AC50 [19]: 22.6 µM (active) | AC50 [20]: 141 µM (active)

O=C(NCCN1CCC2(CC1)C(=O)NCN2c1ccc(F)c(F)c1)c1ccc(Cl)cc1
IC50 [21]: 0.37 µM (active) | IC50 [22]: 2.36 µM (active)

O=c1c2c(F)cccc2nc(/C=C/c2cccnc2)n1Cc1ccccc1
IC50 [23]: > 80 µM (inactive) | IC50 [24]: > 80 µM (inactive)

Cc1cc(N2CCCCC2)nc2ccc(F)cc12
IC50 [25]: 10.5 µM (active) | IC50 [26]: 6.18 µM (active) | IC50 [27]: 20.1 µM (active)
